Source: patent US20170157103A1, “METHODS OF TREATING DIFFUSE LARGE B-CELL LYMPHOMA USING 3-(4-AMINO-1-OXOISOINDOLIN-2-YL)PIPERIDINE-2,6-DIONE” (Celgene Corporation, priority 2015, published 2017)

Columns and labels:
[1] = system: relapsed or refractory diffuse large B-cell lymphoma; assay: Clinical trial of lenalidomide vs control in relapsed or refractory DLBCL patients, subtype determined by Affymetrix; format: in vivo, human; details: for Median overall survival / Median progression free survival: relapsed or refractory DLBCL patients
Text: DLBCL lymph-node biopsies were either snap frozen or formalin fixed and paraffin embedded similarly to that described by Scott et al., Blood 2014 123(8) 1214-1217, the disclosure of which is incorporated herein in its entirety. Messenger RNA was purified and reverse transcribed into cDNA.
DNA microarray analysis of gene expression was done essentially as described below. The cDNA clones on the Lymphochip microarray are available from Research Genetics. Fluorescent images of hybridized microarrays were obtained using a GenePix 4000 microarray scanner (Axon Instruments). Images were analysed with ScanAlyze (M. Eisen; http://www.microarrays.org/software), and fluorescence ratios (along with numerous quality control parameters; see ScanAlyze manual) were stored in a custom database. Single spots or areas of the array with obvious blemishes were flagged and excluded from subsequent analyses. Fluorescence ratios were calibrated independently for each array by applying a single scaling factor to all fluorescent ratios from each array; this scaling factor was computed so that the median fluorescence ratio of well-measured spots on each array was 1.0.
All cDNA microarray analyses were performed using poly-(A)^+ mRNA (Fast Track, Invitrogen). In each experiment, fluorescent cDNA probes were prepared from an experimental mRNA sample (Cy5-labelled) and a control mRNA sample (Cy3-labelled) isolated from a pool of nine lymphoma cell lines (Raji, Jurkat, L428, OCI-Ly3, OCI-Ly8, OCI-Lyl, SUDHL5, SUDHL6 and WSU1). The use of a common control cDNA probe allows the relative expression of each gene to be compared across all samples.
All non-flagged array elements for which the fluorescent intensity in each channel was greater than 1.4 times the local background were considered well measured. The ratio values were log-transformed (base 2) and stored in a table (rows, individual cDNA clones; columns, single mRNA samples). Data for the genes were centered by subtracting (in log space) the median observed value, to remove any effect of the amount of RNA in the reference pool. This dataset contains 4,026 array elements. Hierarchical clustering was applied to both axes using the weighted pair-group method with centroid average as implemented in the program Cluster (M. Eisen; http://www.microarrays.org/software). The distance matrixes used were Pearson correlation for clustering the arrays and the inner product of vectors normalized to magnitude 1 for the genes. The results were analysed with Tree View (M. Eisen; http://www.microarrays.org/software).
(§1) This clinical benefit is observed when subtype is determined by the Affymetrix test (FIG. 1) or by the NanoString test (FIG. 2).

[2] = system: relapsed or refractory diffuse large B-cell lymphoma; assay: Clinical trial of lenalidomide vs control in relapsed or refractory DLBCL patients, subtype determined by NanoString; format: in vivo, human; details: for Median overall survival / Median progression free survival: relapsed or refractory DLBCL patients
Text: DLBCL lymph-node biopsies were formalin fixed and paraffin embedded (FFPE) similarly to that described in Scott et al., Blood 2014 123(8) 1214-1217, the disclosure of which is incorporated by reference herein. Nucleic acids obtained from the tissues were extracted using the QIAGEN AllPrep DNA/RNA FFPE Kit, with deparaffinization achieved using the QIAGEN Deparaffinization Solution, according to the manufacturer's instructions. The RNA was quantitated using spectrophotometry (NanoDrop, Thermo Science, DE). Gene expression on approximately 200 nanograms of RNA was used to determine gene expression levels by means of NanoString technology (NanoString Technologies, WA). The total RNA was hybridized to the custom codesets at 65° C. overnight. The reaction was processed on the nCounter™ Prep Station and gene expression data was then acquired on the nCounter™ Digital Analyzer.
as §1

[3] = ABC plus unclassified subtype (by Affymetrix)
[4] = ABC plus unclassified subtype (by Nanostring)

SMILES: Nc1cccc2c1CN(C1CCC(=O)NC1=O)C2=O (centres unmarked) [lenalidomide, 3-(4-amino-1-oxoisoindolin-2-yl)piperidine-2,6-dione]
- Clinical benefit compared to control as measured by progression free survival ([1]; ABC DLBCL subtype patients and unclassifiable patients, subtype by Affymetrix test (FIG. 1)): benefit
- Median overall survival [1, 3]: 16.3/33^ weeks
- Median progression free survival [1, 3]: 6.3/9.1 weeks
- Median overall survival ([1]; ABC subtype (by Affymetrix)): 18.6/108.4 weeks
- Median progression free survival ([1]; ABC subtype (by Affymetrix)): 6.2/82 weeks
- Median overall survival ([1]; GBC subtype (by Affymetrix)): 20/30 weeks
- Median progression free survival ([1]; GBC subtype (by Affymetrix)): 7.1/13.2 weeks
- Clinical benefit compared to control as measured by progression free survival ([2]; ABC DLBCL subtype patients and unclassifiable patients, subtype by NanoString test (FIG. 2)): benefit
- Median overall survival [2, 4]: 36.9/108.4 weeks
- Median progression free survival [2, 4]: 6.6/82 weeks
- Median overall survival ([2]; ABC subtype (by Nanostring)): 37/43.7 weeks
- Median progression free survival ([2]; ABC subtype (by Nanostring)): 6/27 weeks
- Median overall survival ([2]; GBC subtype (by Nanostring)): 34.9/18 weeks
- Median progression free survival ([2]; GBC subtype (by Nanostring)): 9/8.7 weeks
